Experiments:
[1] = cited from earlier work
[2] = postmortem studies and case reports; cited from earlier work
[3] = Steady-state trough serum concentration (TDM, HPLC with UV detection); type: in vivo, human; conditions: for Est. of Dose on square-root serum concentration, multiple linear regression / Est. of Body weight on square-root serum concentration, multiple linear regression: Model 1, last datapoint, sex, smoking; for Est. of Dose on square-root serum concentration, multiple linear regression: covariates age, body weight; for Est. of Body weight on square-root serum concentration, multiple linear regression: covariates dose, age; for Est. of Body weight on square-root serum concentration, linear mixed effect model / Est. of Dose on square-root serum concentration, linear mixed effect model: Model 2, all datapoints, multiple predictors incl. time; for β of daily dose on square-root serum concentration, linear mixed-effect model: all datapoints, dose as only fixed predictor; for steady-state serum concentration, range / mean steady-state serum concentration, mean (SD): children and adolescents n = 138, last datapoint; for steady-state serum concentration, range: FLX 10–40 mg/day; for mean steady-state serum concentration, mean (SD): FLX 10–40 mg/day (mean 19.93 mg); for β of daily dose (mg) on square-root serum concentration, simple linear regression: last datapoints
Protocol: The study spanned three different routine healthcare settings, including inpatient, outpatient, and day-treatment units. […] All dosing steps were recorded along with corresponding dates in the medication protocol. […] Depending on the clinical course, additional visit times were possible.
TDM analysis was conducted according to the guidelines of the Working Group on Neuropsychopharmacology and Pharmacopsychiatry (AGNP) consensus. Blood samples were collected from cubital veins into 7.5-mL monovettes without any additives or anticoagulants at a steady-state trough level. The samples were immediately analyzed (in the case of samples from Wuerzburg, Germany) or analyzed after being received by the TDM laboratory in Wuerzburg, Germany, shipped by regular mail. […] Each analytical series included internal quality control samples, and external control samples were analyzed quarterly. The laboratory responsible for the analysis is certified by a quality control program (https://www.instand-ev.de, accessed on 2 July 2023; https://www.ukw.de/psychiatrie/zuweisende-kolleginnen-und-kollegen/tdm-labor/zertifikate/, accessed on 2 July 2023). Analytical grade chemicals and solvents were procured from Sigma-Aldrich Chemie GmbH (Taufkirchen, Germany).
All statistical analyses were performed using R (R Foundation for Statistical Computing) version 4.1.1. The alpha level for all analyses was set to 0.05. To maximize the comparability of the conclusions from the dataset generated in this study, the main analyses were performed with both the last valid timepoint, as in previous relevant studies, and with all the valid timepoints, as detailed in the next paragraph. […] The model assumptions were verified by means of the semi-automated diagnostic functions in the ‘gvlma’ (Global Validation of Linear Models Assumptions) R package, including evaluation of global statistics, skewness, kurtosis, link function, and heteroscedasticity parameters and inspection of the related plots. […] In addition to the simple linear regressions, multiple linear regressions were performed with four additional hypothesized predictors: age (years), sex (male/female), body weight (kg), and smoking status (yes/no). The variance inflation factor (VIF) was evaluated as a measure of multicollinearity. Both regressions were compared based upon model fit. Second, proportional odds models using the clm (cumulative link models) function in the ‘ordinal’ R package were fitted to examine the serum concentrations as predictors of clinical effects (measured by CGI-I) and adverse effects (measured by PAERS—maximal severity). […] The analyses were repeated with an extended set of hypothesized predictors. For CGI-I, these were age, sex, psychotropic co-medication (i.e., antipsychotic and antidepressant drug), and diagnostic comorbidity (i.e., a single diagnosis versus multiple diagnoses). For PAERS, the predictors were age, sex, and psychotropic co-medication. The proportional odds assumptions in these statistics were verified with likelihood ratio tests using the nominal_test and scale_test functions, while model convergence was tested with the convergence function.
The model with multiple predictors included the variables, as in the single timepoint analyses, as well as the data collection time (i.e., days from the baseline timepoint).
To determine a possible concentration threshold of efficacy, receiver operating curve (ROC) analyses were performed based on a binary logistic regression, and the optimal cutoff was calculated by finding an optimal trade-off between sensitivity and specificity.

[4] = tested on: patients; parameters: method as in PMID 19723786, PMID 19934760; conditions: cited from earlier work
[5] = tested on: CYP2D6; conditions: cited from earlier work
[6] = tested on: children and adolescents; test: Adverse effects on Pediatric Adverse Event Rating Scale (PAERS), maximal severity; type: in vivo, human; conditions: n = 134 (4 missing); for patients with PAERS max. severity 'none' (no adverse effects): FLX 10–40 mg/day
Protocol: On the day of blood collection, treatment responses were measured using the Clinical Global Impression (CGI) Scale (Improvement, CGI-I), which clinicians were instructed to rate solely based on the effects of the drug. […] This instrument was specifically designed to quantify the severity of 56 signs of adverse events occurring in pediatric patients under treatment with a psychotropic drug. The 56 items were rated on a Likert scale with 'none', 'slight', 'moderate', 'severe', and 'extremely severe' responses. The maximal severity on any of the items was considered in this study. […] Additionally, indications for the TDM measurement, detailed information on concomitant medications, nicotine use, weight, and height were also recorded. […] All statistical analyses were performed using R (R Foundation for Statistical Computing) version 4.1.1. The alpha level for all analyses was set to 0.05. To maximize the comparability of the conclusions from the dataset generated in this study, the main analyses were performed with both the last valid timepoint, as in previous relevant studies, and with all the valid timepoints, as detailed in the next paragraph. […] As not all the assumptions were met by the original data, a square-root transformation was applied to the outcome variables. In addition to the simple linear regressions, multiple linear regressions were performed with four additional hypothesized predictors: age (years), sex (male/female), body weight (kg), and smoking status (yes/no). The variance inflation factor (VIF) was evaluated as a measure of multicollinearity. Both regressions were compared based upon model fit. Second, proportional odds models using the clm (cumulative link models) function in the 'ordinal' R package were fitted to examine the serum concentrations as predictors of clinical effects (measured by CGI-I) and adverse effects (measured by PAERS-maximal severity). As there was only a single 'very severe' PAERS response, 'very severe' and 'severe' responses were pooled together. The analyses were repeated with an extended set of hypothesized predictors. For CGI-I, these were age, sex, psychotropic co-medication (i.e., antipsychotic and antidepressant drug), and diagnostic comorbidity (i.e., a single diagnosis versus multiple diagnoses). For PAERS, the predictors were age, sex, and psychotropic co-medication. The proportional odds assumptions in these statistics were verified with likelihood ratio tests using the nominal_test and scale_test functions, while model convergence was tested with the convergence function. […] The clmm (cumulative link mixed models) function from the 'ordinal' package was used to test the impact of metabolite level on clinical and adverse effects with CGI-I and […] […]

[7] = tested on: children and adolescents; test: Treatment response on Clinical Global Impression-Improvement (CGI-I); type: in vivo, human
Protocol: On the day of blood collection, treatment responses were measured using the Clinical Global Impression (CGI) Scale (Improvement, CGI-I), which clinicians were instructed to rate solely based on the effects of the drug. […] This instrument was specifically designed to quantify the severity of 56 signs of adverse events occurring in pediatric patients under treatment with a psychotropic drug. The 56 items were rated on a Likert scale with 'none', 'slight', 'moderate', 'severe', and 'extremely severe' responses. The maximal severity on any of the items was considered in this study. […] Additionally, indications for the TDM measurement, detailed information on concomitant medications, nicotine use, weight, and height were also recorded. […] All statistical analyses were performed using R (R Foundation for Statistical Computing) version 4.1.1. The alpha level for all analyses was set to 0.05. To maximize the comparability of the conclusions from the dataset generated in this study, the main analyses were performed with both the last valid timepoint, as in previous relevant studies, and with all the valid timepoints, as detailed in the next paragraph. […] In addition to the simple linear regressions, multiple linear regressions were performed with four additional hypothesized predictors: age (years), sex (male/female), body weight (kg), and smoking status (yes/no). The variance inflation factor (VIF) was evaluated as a measure of multicollinearity. Both regressions were compared based upon model fit. Second, proportional odds models using the clm (cumulative link models) function in the 'ordinal' R package were fitted to examine the serum concentrations as predictors of clinical effects (measured by CGI-I) and adverse effects (measured by PAERS-maximal severity). […] The analyses were repeated with an extended set of hypothesized predictors. For CGI-I, these were age, sex, psychotropic co-medication (i.e., antipsychotic and antidepressant drug), and diagnostic comorbidity (i.e., a single diagnosis versus multiple diagnoses). For PAERS, the predictors were age, sex, and psychotropic co-medication. The proportional odds assumptions in these statistics were verified with likelihood ratio tests using the nominal_test and scale_test functions, while model convergence was tested with the convergence function. […] The clmm (cumulative link mixed models) function from the 'ordinal' package was used to test the impact of metabolite level on clinical and adverse effects with CGI-I and […] […] The model with multiple predictors included the variables, as in the single timepoint analyses, as well as the data collection time (i.e., days from the baseline timepoint). To determine a possible concentration threshold of efficacy, receiver operating curve (ROC) analyses were performed based on a binary logistic regression, and the optimal cutoff was calculated by finding an optimal trade-off between sensitivity and specificity. […] The last valid datapoints were included in these analyses as deemed most appropriate. Transdiagnostic responders and responders with depression ([…].X and […].X) were considered separately.

[8] = Responders Transdiagnostic n = 64
[9] = Responders with Depression n = 44

Structure (SMILES)	half-life [1]	Est. of Dose on square-root serum concentration, multiple linear regression [3]	Est. of Body weight on square-root serum concentration, multiple linear regression [3]	Est. of Body weight on square-root serum concentration, linear mixed effect model [3]	Est. of Dose on square-root serum concentration, linear mixed effect model [3]	serum concentration of responders, M+1SD (mean plus 1 standard deviation) [3, 8]	serum concentration of responders, M-1SD (mean minus 1 standard deviation) [3, 8]	serum concentration of responders, Q1 (first interquartile) [3, 8]	serum concentration of responders, Q3 (third interquartile) [3, 8]	serum concentration of responders, M+1SD (mean plus 1 standard deviation) [3, 9]	serum concentration of responders, M-1SD (mean minus 1 standard deviation) [3, 9]	serum concentration of responders, Q1 (first interquartile) [3, 9]	serum concentration of responders, Q3 (third interquartile) [3, 9]	β of daily dose on square-root serum concentration, linear mixed-effect model [3]	steady-state serum concentration, range [3]	mean steady-state serum concentration, mean (SD) [3]	β of daily dose (mg) on square-root serum concentration, simple linear regression [3]	binding affinity to CYP2D6 [5]	other results
CNCCC(Oc1ccc(C(F)(F)F)cc1)c1ccccc1 (centres unmarked) [FLX, Fluoxetine]	96 to 140 h	0.24	−0.07	−0.07	0.34	191.29 ng/mL	57.97 ng/mL	73 ng/mL	155 ng/mL	181.19 ng/mL	62.51 ng/mL	69.5 ng/mL	156.25 ng/mL	0.31	17 to 396 ng/mL	123.66 ± 65.17 ng/mL	0.18	high binding affinity	absorption after oral administration [1]: almost completely absorbed; bioavailability ([1]; oral, reduced by hepatic first-pass metabolism): less than 90%; serum levels in fatal overdoses [2]: 1300 to 7000 ng/mL; patients who do not respond to pharmacologic monotherapy [4]: 40–60%; inhibition of CYP2D6 [5]: potent inhibitor; patients with PAERS max. severity 'extremely severe' [6]: 1 (0.7%); patients with PAERS max. severity 'severe' [6]: 2 (1.5%); patients with PAERS max. severity 'none' (no adverse effects) [6]: 87 (64.9%); patients with PAERS max. severity 'none' (no adverse effects) ([6]; listed as fluoxetine): 64.9%; patients with CGI-I 'minimally improved' ([7]; n = 138, FLX 10–40 mg/day): 60 (43.5%); patients with CGI-I 'minimally worse' ([7]; n = 138, FLX 10–40 mg/day): 3 (2.2%); patients with CGI-I 'much worse' ([7]; n = 138, FLX 10–40 mg/day): 2 (1.4%); patients with CGI-I 'no change' ([7]; n = 138, FLX 10–40 mg/day): 8 (5.8%); patients with CGI-I 'very much worse' ([7]; n = 138, FLX 10–40 mg/day): 0 (0%); patients with CGI-I 'minimally improved' ([7]; n = 138, FLX 10–40 mg/day, listed as fluoxetine): 43.5%; patients with marked improvement ([7]; n = 138, much improved plus very much improved): 45.6%
NCCC(Oc1ccc(C(F)(F)F)cc1)c1ccccc1 (centres unmarked) [NORFLX, Norfluoxetine]	96 to 360 h	0.21	−0.05	−0.05	0.26	218.24 ng/mL	85.28 ng/mL	102.5 ng/mL	186 ng/mL	223.57 ng/mL	78.88 ng/mL	98.75 ng/mL	184.25 ng/mL	0.25	21 to 339 ng/mL	144.74 ± 65.93 ng/mL	0.19	high binding affinity	relationship between serum level and therapeutic effect (CGI-I) ([7]; ordinal regressions): no significant relationship

Reference: PMC10534581 (Pharmaceutics, 2023)
